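The compound was tested at five concentrations on cells cultured in 96-well plates, with a 48-hour exposure period. GI50 marks 50% less growth. At the TGI there is no net growth.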
Legend:
Assay in all cases: growth of human tumour cells (NCI), 48 h
[1] = tested on: NCI-H226 lung
[2] = tested on: SK-MEL-28 melanoma
[3] = tested on: EKVX NSCLC
[4] = tested on: KM12 colon
[5] = tested on: 786-0 renal
[6] = tested on: SR leukemia
[7] = tested on: ACHN renal
[8] = tested on: SNB-75 CNS
[9] = tested on: SW-620 colon
[10] = tested on: SF-295 CNS
[11] = tested on: HCT-15 colon
[12] = tested on: SF-268 CNS
[13] = tested on: MDA-MB-435
[14] = tested on: T-47D breast
[15] = tested on: UO-31 renal
[16] = tested on: RPMI-8226 leukemia
[17] = tested on: HCT-116 colon
[18] = tested on: PC-3 prostate
[19] = tested on: SK-MEL-2 melanoma
[20] = tested on: A498 renal
[21] = tested on: HCC-2998 colon
[22] = tested on: MDA-MB-231 breast
[23] = tested on: NCI-H460 lung
[24] = tested on: SK-MEL-5 melanoma
[25] = tested on: SF-539 CNS
[26] = tested on: NCI-H522 lung
[27] = tested on: OVCAR-5 ovarian
[28] = tested on: RXF 393 renal
[29] = tested on: SNB-19 CNS
[30] = tested on: HOP-92 NSCLC
[31] = tested on: HT29 colon
[32] = tested on: HL-60(TB) leukemia
[33] = tested on: NCI-H23 lung
[34] = tested on: LOX IMVI melanoma
[35] = tested on: HOP-62 NSCLC
[36] = tested on: UACC-62 melanoma
[37] = tested on: K-562 leukemia
[38] = tested on: CCRF-CEM leukemia
[39] = tested on: CAKI-1 renal
[40] = tested on: COLO 205 colon
[41] = tested on: OVCAR-4 ovarian
[42] = tested on: A549 NSCLC
[43] = tested on: IGROV1 ovarian
[44] = tested on: U251 CNS
[45] = tested on: BT-549 breast
[46] = tested on: MCF7 breast
[47] = tested on: TK-10 renal
[48] = tested on: DU-145 prostate
[49] = tested on: SN12C renal
[50] = tested on: OVCAR-8 ovarian
[51] = tested on: MOLT-4 leukemia
[52] = tested on: OVCAR-3 ovarian
[53] = tested on: SK-OV-3 ovarian
[54] = tested on: HS 578T breast

`COc1ccc(-c2c(-c3cc(OC)c4c(c3)OCO4)noc2N)cc1` showed a GI50 [1] of 88.3 nM, a TGI [1] of 4070 nM and a GI50 [2] of 872 nM. The TGI [2] was 33400 nM, the GI50 [3] was 1740 nM and the TGI [3] was greater than 71300 nM. The GI50 [4] was 16.1 nM, the TGI [4] was 827 nM and the GI50 [5] was 84.5 nM. For the same compound, the TGI [5] was 24100 nM, the GI50 [6] was less than 10.4 nM and the TGI [6] was greater than 36600 nM. For the same compound, the GI50 [7] was 108 nM, the TGI [7] was 39800 nM and the GI50 [8] was 33.9 nM. The TGI [8] was 58500 nM, the GI50 [9] was 28.9 nM and the TGI [9] was greater than 100000 nM. The GI50 [10] was 19.7 nM, the TGI [10] was 23800 nM and the GI50 [11] was 43.1 nM. It also gave a TGI [11] greater than 100000 nM, a GI50 [12] of 110 nM and a TGI [12] greater than 91000 nM. For the same compound, the TGI [13] was 25.1 nM, the GI50 [14] was 42.2 nM and the TGI [14] was 47100 nM. For the same compound, the GI50 [15] was 463 nM, the TGI [15] was 35500 nM and the GI50 [16] was 51.1 nM. It also gave a TGI [16] of 16900 nM, a GI50 [17] of 43.8 nM and a TGI [17] of 19500 nM. For the same compound, the GI50 [18] was 43.6 nM, the TGI [18] was 60100 nM and the GI50 [19] was 32.4 nM. The TGI [19] was 21500 nM, the GI50 [20] was 26.8 nM and the TGI [20] was 342 nM. The GI50 [21] was 110 nM, the TGI [21] was 18300 nM and the GI50 [22] was 181 nM. The TGI [22] was 16900 nM, the GI50 [23] was 33.9 nM and the TGI [23] was 10900 nM. The GI50 [24] was 28.8 nM, the TGI [24] was 485 nM and the GI50 [25] was 33.9 nM. For the same compound, the TGI [25] was 11700 nM, the TGI [26] was 23.9 nM and the GI50 [27] was 339 nM. It also gave a TGI [27] of 99300 nM, a GI50 [28] of 16.7 nM and a TGI [28] of 62.7 nM. The GI50 [29] was 70.8 nM, the TGI [29] was greater than 100000 nM and the GI50 [30] was 3720 nM. It also gave a TGI [30] of 35800 nM, a GI50 [31] of 35.3 nM and a TGI [31] of 1630 nM. For the same compound, the GI50 [32] was 35.1 nM, the TGI [32] was 13700 nM and the GI50 [33] was 32.9 nM. The TGI [33] was 20900 nM, the GI50 [34] was 62.9 nM and the TGI [34] was greater than 51500 nM. It also gave a GI50 [35] of 34.5 nM, a TGI [35] of 37100 nM and a GI50 [36] of 50 nM. The TGI [36] was 20700 nM, the GI50 [37] was 19.3 nM and the TGI [37] was greater than 100000 nM. The GI50 [38] was 36.1 nM, the TGI [38] was 24900 nM and the GI50 [39] was 42.4 nM. It also gave a TGI [39] of 57200 nM, a GI50 [40] of 34.7 nM and a TGI [40] of 122 nM. For the same compound, the GI50 [41] was 204 nM, the TGI [41] was greater than 56400 nM and the GI50 [42] was 66.3 nM. For the same compound, the TGI [42] was greater than 100000 nM, the GI50 [43] was 93 nM and the TGI [43] was greater than 100000 nM. It also gave a GI50 [44] of 38.2 nM, a TGI [44] of 42700 nM and a GI50 [45] of 568 nM. The TGI [45] was 38700 nM, the GI50 [46] was 28 nM and the TGI [46] was 28500 nM. It also gave a GI50 [47] of 10400 nM, a TGI [47] of 49700 nM and a GI50 [48] of 41 nM. For the same compound, the TGI [48] was 1970 nM, the GI50 [49] was 147 nM and the TGI [49] was greater than 93000 nM. It also gave a GI50 [50] of 65.4 nM, a TGI [50] of 22800 nM and a GI50 [51] of 72.3 nM. The TGI [51] was 17500 nM, the GI50 [52] was 20.3 nM and the TGI [52] was 48.3 nM. For the same compound, the GI50 [53] was 32 nM, the TGI [53] was 1290 nM and the GI50 [54] was 30.2 nM. The TGI [54] was 49600 nM.

— PubChem BioAssay (NCI)
